Reference: patent publication US5686448A (priority 1995, dated 1997)
Read-outs that look alike come from different tables or passages of the source.

Assays:
HSV-2 (333 strain) = settings: for % plaque inhibition: 2 hours pre-incubation
Procedure: In Series No. 1 of Example No. 1, monolayer cultures of Vero, RK-13 (rabbit kidney), and WISH (human amnion, Hayflick) cells were used in the experiments of Example No. 1. The cells were grown in Basal Minimal Eagle's Media supplemented with 5% fetal calf serum, 1% glutamine, sodium bicarbonate and antibiotics. Cultures were maintained in a maintenance media that was the same media, except that the maintenance media contained 2% fetal calf serum. An F Strain of HSV-1 was chosen because it is a well-known prototype of HSV-1. This F Strain can be obtained from the American Type Culture Collection (ATCC), 12301 Parklawn Drive, Rockville, Md. 20852, at which it is identified as ATC-VR 733. For studies with HSV-2, a G strain of HSV-2 (ATCC-VR 734) and a 333 strain of HSV-2 were selected. These strains also can be obtained from the ATCC.
Accordingly, the pre-inoculation experiments measured the effect of the drug on a cell that was already infected with the virus. The pre-incubation experiments measured the cell cultures that were treated with the drug prior to the inoculation to determine if these cells then would be permissive or non-permissive to the tested virus. In these experiments, plaque reduction assays provided a quantitative measure of antiviral activity and was deemed to be reliable and objective.
In the pre-incubation experiments, the media was either decanted or gently aspirated from the cultures. After decanting or aspirating, 1 ml of the drug dilution plus maintenance media was added to the cultures. The cultures that served as virus controls or cell controls received 2 ml of maintenance media. After the pre-treatment period, the media was again aspirated and the cell cultures were infected with the virus.
When this occurred, the cultures were fixed and stained with crystal violet. The plaque were then carefully counted under the microscope. By such a counting and careful comparison, percentages of plaque inhibition in the treated cultures were then calculated.
The 333 strain, which can be obtained from ATCC, was used.

HSV-1 (F strain) [1] = system: HSV-1 (F strain)
Vero cells = system: Vero cells
Procedure: To determine the toxicity level of the drug, all three cell lines--RK-13, Vero cells, and WISH cells--were used. In the toxicity experiments, the effect of the drug on the uninfected cell for a range of periods of time was determined. Accordingly, cultures were incubated with and without the drug. The time of exposure was from one to seven hours. A comparison was then made between the drug tested cultures and the control cultures. After each period of incubation, the cells were washed and fresh media was added to the cells. The cell viability was then determined by dividing these cultures and having them grow into new cell cultures.
At the end of the incubation period, the cultures were washed twice with sterile PBS (Dulbecco). Fresh medium was added to each of the cultures. The cultures were then incubated for an additional 24 hours.
Healthy confluent monolayer cell cultures were overlaid with 1 ml of the drug and incubated for 48 hours at 37° C. and then stained. Cell cultures with maintenance media were used as controls.

HSV-1 (McKrae strain) [2] = settings: 20 mg/ml
HSV-1 (McKrae strain) [3] = settings: for No. of Plaques: virus controls 270, 270, 252
Procedure: All cultures were incubated at 37° C. in a 5% CO2 humidified atmosphere. The cultures were stained with crystal violet to aid in counting the plaque.

HSV-1 (McKrae strain) [4] = settings: for cells exhibiting CPE, area of infection per field: 20 mg/ml
[5] = system: RK-13, Vero and WISH cells
RK-13 cells = settings: 25 mg/ml, 48 hours
HSV-1 (F strain) [6] = system: HSV-1 (F strain); remark: listed apart in the source
[7] = Exp. 1D, added after adsorption, 25.0 mg/culture
[8] = Exp. 1D, added after adsorption, 50.0 mg/culture

CC[N+](CC)(CC)CC.[Cl-] [TEAC, tetraethylammonium chloride]
sensitivity to TEAC vs HSV-1 (HSV-2 (333 strain); 333 strain): even more sensitive to TEAC than HSV-1 | % plaque inhibition (HSV-2 (333 strain); 12.5 mg/culture): 25% | % plaque inhibition (HSV-2 (333 strain); 25 mg/culture): 42% | % plaque inhibition (HSV-2 (333 strain); 50 mg/culture): 56% | inhibition of in vitro replication (HSV-2 (333 strain); HSV-2, summary): inhibited the in vitro replication of HSV-1 and HSV-2 | % plaque inhibition (HSV-1 (F strain) [1]; Exp. 1C, added after inoculation, 0.62 mg/culture): 30% | % plaque inhibition (HSV-1 (F strain) [1]; Exp. 1C, added after inoculation, 1.25 mg/culture): 39% | % plaque inhibition (HSV-1 (F strain) [1]; Exp. 1C, added after inoculation, 2.50 mg/culture): 46% | % plaque inhibition (HSV-1 (F strain) [1]; Exp. 1C, added after inoculation, 5.00 mg/culture): 45% | % plaque inhibition (HSV-1 (F strain) [1]; Exp. 1C, added after inoculation, 10.00 mg/culture): 56% | antiviral activity (HSV-1 (F strain) [1]; Exp. 1C, all dilutions): Antiviral activity was seen in all dilutions tested | % plaque inhibition (HSV-1 (F strain) [1]; Exp. 1D, added after adsorption, 6.2 mg/culture): 20% | % plaque inhibition (HSV-1 (F strain) [1]; Exp. 1D, added after adsorption, 12.5 mg/culture): 62% | plaque formation (HSV-1 (F strain) [1]; Exp. 1D, added after adsorption, 25 mg/culture): no plaque formed | % plaque inhibition (HSV-1 (F strain) [1]; [7]): 100% | cell layer appearance (thin = cells attached, monolayer not confluent) (HSV-1 (F strain) [1]; [7]): thin | plaque formation (HSV-1 (F strain) [1]; Exp. 1D, added after adsorption, 50 mg/culture): no plaque formed | % plaque inhibition (HSV-1 (F strain) [1]; [8]): 100% | cell layer appearance (thin = cells attached, monolayer not confluent) (HSV-1 (F strain) [1]; [8]): thin | inhibition of in vitro replication (HSV-1 (F strain) [1]; HSV-1, summary): inhibited the in vitro replication of HSV-1 and HSV-2 | toxicity (Vero cells; 25 mg/ml, 48 hours): slight toxicity | change in morphology of cells (Vero cells; 5, 2.5, 1.25 mg/culture overnight): No change in the morphology of the cells | growth or general appearance vs untreated (Vero cells; 5, 2.5, 1.25 mg/culture, additional 24 hours in fresh medium): no apparent difference in the growth or general appearance | virus yield (HSV-1 (McKrae strain) [2]; cell, 6 hours P.I., 10^-1): 2 PFU/ml | virus yield (HSV-1 (McKrae strain) [2]; cell, 6 hours P.I., 10^-2): 5 PFU/ml | virus yield (HSV-1 (McKrae strain) [2]; cell, 6 hours P.I., Und.): 12 PFU/ml | virus yield (HSV-1 (McKrae strain) [2]; cell, 10 hours P.I., 10^-1): 3 PFU/ml | virus yield (HSV-1 (McKrae strain) [2]; cell, 10 hours P.I., 10^-2): 0 PFU/ml | virus yield (HSV-1 (McKrae strain) [2]; cell, 10 hours P.I., Und.): 13 PFU/ml | virus yield (HSV-1 (McKrae strain) [2]; cell, 20 hours P.I., 10^-1): 5 PFU/ml | virus yield (HSV-1 (McKrae strain) [2]; cell, 20 hours P.I., 10^-2): 0 PFU/ml | virus yield (HSV-1 (McKrae strain) [2]; cell, 20 hours P.I., Und.): 42 PFU/ml | virus yield (HSV-1 (McKrae strain) [2]; cell, 24 hours P.I., 10^-1): 32 PFU/ml | virus yield (HSV-1 (McKrae strain) [2]; cell, 24 hours P.I., 10^-2): 10 PFU/ml | virus yield (HSV-1 (McKrae strain) [2]; cell, 24 hours P.I., Und.): 58 PFU/ml | virus yield (HSV-1 (McKrae strain) [2]; cell, 28 hours P.I., 10^-1): TMTC | virus yield (HSV-1 (McKrae strain) [2]; cell, 28 hours P.I., 10^-2): 15 PFU/ml | virus yield (HSV-1 (McKrae strain) [2]; cell, 28 hours P.I., Und.): W.O. | virus yield (HSV-1 (McKrae strain) [2]; supernatant, 6 hours P.I., 10^-1): 0 PFU/ml | virus yield (HSV-1 (McKrae strain) [2]; supernatant, 6 hours P.I., 10^-2): 0 PFU/ml | virus yield (HSV-1 (McKrae strain) [2]; supernatant, 6 hours P.I., 10^-3): 0 PFU/ml | virus yield (HSV-1 (McKrae strain) [2]; supernatant, 10 hours P.I., 10^-1): 0 PFU/ml | virus yield (HSV-1 (McKrae strain) [2]; supernatant, 10 hours P.I., 10^-2): 0 PFU/ml | virus yield (HSV-1 (McKrae strain) [2]; supernatant, 10 hours P.I., 10^-3): 0 PFU/ml | virus yield (HSV-1 (McKrae strain) [2]; supernatant, 20 hours P.I., 10^-1): 0 PFU/ml | virus yield (HSV-1 (McKrae strain) [2]; supernatant, 20 hours P.I., 10^-2): 0 PFU/ml | virus yield (HSV-1 (McKrae strain) [2]; supernatant, 20 hours P.I., 10^-3): 0 PFU/ml | virus yield (HSV-1 (McKrae strain) [2]; supernatant, 24 hours P.I., 10^-1): 0 PFU/ml | virus yield (HSV-1 (McKrae strain) [2]; supernatant, 24 hours P.I., 10^-2): 0 PFU/ml | virus yield (HSV-1 (McKrae strain) [2]; supernatant, 24 hours P.I., 10^-3): 0 PFU/ml | virus yield (HSV-1 (McKrae strain) [2]; supernatant, 28 hours P.I., 10^-1): 0 PFU/ml | virus yield (HSV-1 (McKrae strain) [2]; supernatant, 28 hours P.I., 10^-2): 0 PFU/ml | virus yield (HSV-1 (McKrae strain) [2]; supernatant, 28 hours P.I., 10^-3): 0 PFU/ml | cell layer appearance (vaccinia): thin | plaque formation (vaccinia): did not have any plaque | crusting (HSV type 1; Patient L, 2.9 cc, normally 3 weeks): on the 7th day after the treatment, the crusting had all disappeared | labialis lesion (HSV type 1; Patient M, 1% TEAC ointment resumed, three days later): the lesion had not spread and had now crusted | clearing of lesions (HSV type 1; Patient M, 1% TEAC ointment, five days later): cleared in a shorter time period than usual | enhancement of plaque (HSV-1 (McKrae strain) [3]; 12.5 mg/ml): apparent enhancement of plaque | No. of Plaques (HSV-1 (McKrae strain) [3]; 12.5 mg/ml): 300 | monolayer appearance (HSV-1 (McKrae strain) [3]; 25 mg/ml): thinned out appearance | No. of Plaques (HSV-1 (McKrae strain) [3]; 25 mg/ml): 0 | plaque inhibition (HSV-1 (McKrae strain) [3]; 12.5, 6.25, 3.125 mg/ml): not significantly effective in achieving plaque inhibition | cells exhibiting CPE, area of infection per field (HSV-1 (McKrae strain) [4]; 6 hours P.I., virus control 1/4): 1/6 | cells exhibiting CPE, area of infection per field (HSV-1 (McKrae strain) [4]; 30 hours P.I., virus control 1/2): scattered | No. of cells with virus particles (HSV-1 (McKrae strain) [4]; 6 hours P.I., 100 cells examined, control 0): 0 | No. of cells with internuclear dense bodies (HSV-1 (McKrae strain) [4]; 6 hours P.I., 100 cells examined, control 14): 12 | Total % (HSV-1 (McKrae strain) [4]; 6 hours P.I., 100 cells examined, control 14%): 12% | cell membrane appearance (HSV-1 (McKrae strain) [4]; 6 hours post infection): unusually extended and wavy | No. of cells with internuclear dense bodies (HSV-1 (McKrae strain) [4]; 24 hours P.I., 300 cells examined, control 0 of 50): 12 | No. of cells with virus particles (HSV-1 (McKrae strain) [4]; 24 hours P.I., 300 cells examined, control 50 of 50): 8 | Total % (HSV-1 (McKrae strain) [4]; 24 hours P.I., 300 cells examined, control 100%): 6% | nucleocapsid size (HSV-1 (McKrae strain) [4]; 24 hours post infection): about 99.6 A | nucleocapsids in cytoplasm (HSV-1 (McKrae strain) [4]; 24 hours post infection): coreless nucleocapsids in paracrystalline arrays | virus particles in inter-cellular space (HSV-1 (McKrae strain) [4]; 24 hours post infection): some abnormal virus particles were detected | reversibility of toxicity (thin) / morphology changes ([5]; drug removed, fresh media added): totally reversible | change in morphology or cytopathic effect ([5]; one to seven hours exposure): No change in morphology or cytopathic effect | rate of growth vs cultures without TEAC ([5]; one to seven hours exposure): no difference in the rate of growth | toxicity to cells ([5]; one to seven hours exposure): not toxic to cells | toxicity (RK-13 cells): toxicity | average plaque number (HSV-1 (F strain) [6]; 2.5 mg/ml (1 ml plus 4 ml media), Vero, control 488.5): 75.5 plaque | size of the plaque vs control (HSV-1 (F strain) [6]; 2.5 mg/ml, Vero): appreciably smaller | suppression of viral growth (HSV-1 (F strain) [6]; summary of first series): not only by the reduced number of plaque, but also by their reduced size
